We go through five compounds from patent US20260217683A1, “PYRIDAZINONE HETEROCYCLIC COMPOUND MYOSIN II INHIBITOR AND USE THEREOF” (Xizang Haisco Pharmaceutical Co., Ltd., priority 2023, published 2026).

pIC50: −log10 of the molar value. Like-named read-outs stand apart in the source and are kept apart here.

Broadly, the IC50 is the midpoint of a concentration-inhibition curve. The low end stands for greater potency, the high end for weaker potency. By AUC(0-t) is commonly meant exposure summed from dosing to a finite time, without extrapolation to infinity. High values mean more exposure, low ones less exposure. A word on the Cmax: it is the highest concentration seen after dosing. By half-life is commonly meant the time in which the quantity being followed falls by half. High values mean slow decline, low ones rapid decline. One may read the pIC50 as the IC50 on a negative log10 scale, so that one unit is a factor of ten. As a reminder, the inhibition is the drop in the measured response relative to a control, in per cent.

In data set [1] the target is T1, CYP2C19 (Homo sapiens, UniProt P33261).
T1 construct: incubated with human liver microsomes and test compounds of different concentrations; from tissue; host or cells: human liver microsomes
Nature of the data set: CYP450 enzyme inhibition, human liver microsomes, CYP2C19. Format: in vitro ADME. How it is done:
(§1) The purpose of this study was to evaluate the effect of the test compound on the activity of five isoenzymes (CYP1A2, CYP2C9, CYP2C19, CYP2D6 and CYP3A4) of human liver microsomal cytochrome P450 (CYP) by using an in vitro testing system. The specific probe substrates of CYP450 isoenzymes were incubated with human liver microsomes and test compounds of different concentrations, and reduced nicotinamide adenine dinucleotide phosphate (NADPH) was added to initiate the reaction. After the completion of the reaction, the sample was treated and liquid chromatography-tandem mass spectrometry (LC-MS/MS) was used to quantitatively detect metabolites produced by specific substrates, changes in CYP enzyme activity were determined, and IC50 value was calculated to evaluate the inhibitory potential of the test compound on each CYP enzyme subtype.
Background: Liver microsomes are vesicles of endoplasmic reticulum, rich in cytochrome P450 enzymes.

The target in data set [2] is T2, CYP3A4 (Homo sapiens, UniProt P08684).
T2 construct: incubated with human liver microsomes and test compounds of different concentrations; from tissue; host or cells: human liver microsomes
Nature of the data set: CYP450 enzyme inhibition, human liver microsomes, CYP3A4. The format is in vitro ADME. The procedure:
as §1

Data set [3] is described as follows: Pharmacokinetic experiment in mice. The format is in vivo. As to conditions: male, C57, po; mouse plasma, i.g. (10 mg/kg). How it is done: (§2) 1. Experimental animals: Male C57 mice, 22-25 g, 6 mice/compound. Purchased from Chengdu Ddossy Experimental Animals Co., Ltd.
2. Experimental design: On the day of the experiment, 12 C57 mice were randomly grouped according to their body weight. The animals were fasted with water available for 12 to 14 h one day before the administration and were fed 4 h after the administration.
Before and after the administration, 0.06 mL of blood was taken from the orbit of the animals under isoflurane anesthesia and placed in an EDTAK2 centrifuge tube. The blood was centrifuged at 5000 rpm and 4° C. for 10 min to collect the plasma. The blood collection time points for the intravenous group and intragastric administration group were: 0 m, 5 m, 15 min, 30 min, 1 h, 2 h, 4 h, 7 h and 24 h. Before analysis and detection, all samples were stored at −80° C., and a quantitative analysis of samples was performed using LC-MS/MS.

The target in data set [4] is T3, hERG potassium ion channel (Homo sapiens, UniProt Q12809).
T3 construct: expressed in transfected cells
Nature of the data set: Effect on hERG potassium ion channel (manual patch-clamp, CHO cells). The note with it: CHO cells stably expressing hERG, whole cell patch-clamp; read-out: IC50 of the inhibitory effect on hERG potassium channel current. The format is cell-based. The text has this:
1. Experimental platform: electrophysiological manual patch-clamp system
2. Cell line: Chinese hamster ovary (CH—O) cell lines stably expressing hERG potassium ion channel
3. Experimental method: in CHO (Chinese Hamster Ovary) cells stably expressing hERG potassium channel, whole cell patch-clamp technique was used to record hERG potassium channel current at room temperature. The glass microelectrode was made of a glass electrode blank (BF150-86-10, Sutter) by a puller. The tip resistance after filling the liquid in the electrode was about 2-5 MQ. The glass microelectrode can be connected to the patch-clamp amplifier by inserting the glass microelectrode into an amplifier probe. The clamping voltage and data recording were controlled and recorded by the pClamp 10 software through a computer. The sampling frequency was 10 kHz, and the filtering frequency was 2 kHz. After the whole cell records were obtained, the cells were clamped at −80 mV, and the step voltage that induced the hERG potassium current (IhERG) was depolarized from −80 mV to +20 mV for 2 s, then repolarized to −50 mV, and returned to −80 mV after 1 s. This voltage stimulation was given every 10 s, and the administration process was started after the hERG potassium current was confirmed to be stable (at least 1 minute). The compound was administered for at least 1 minute at each test concentration, and at least 2 cells (n≥2) were tested at each concentration.
4. Data processing: Data analysis processing was carried out by using pClamp 10, GraphPad Prism 5 and Excel software. The inhibition degree of hERG potassium current (peak value of hERG tail current induced at −50 mV) at different compound concentrations was calculated by the following formula:
[formula] • where Inhibition % represents the percentage of inhibition of hERG potassium current by the compound, and I and Io represent the amplitude of hERG potassium current after and before the administration, respectively.
Compound IC50 was calculated using GraphPad Prism 5 software by fitting according to the following equation: […]
Among the equation, X represents the Log value of the tested concentration of the test sample, Y represents the inhibition percentage at the corresponding concentration, and Bottom and Top represent the minimum and maximum inhibition percentage, respectively.

Data set [5] addresses T4, CYP2D6 (Homo sapiens, UniProt P10635).
T4 construct: incubated with human liver microsomes and test compounds of different concentrations; from tissue; host or cells: human liver microsomes
Nature of the data set: CYP450 enzyme inhibition, human liver microsomes, CYP2D6. The format is in vitro ADME. The procedure:
as §1

In data set [6] the target is T5, CYP2C9 (Homo sapiens, UniProt P11712).
T5 construct: incubated with human liver microsomes and test compounds of different concentrations; from tissue; host or cells: human liver microsomes
Description: CYP450 enzyme inhibition, human liver microsomes, CYP2C9. The format is in vitro ADME. The procedure: as §1

In data set [7] the target is T6, CYP1A2 (Homo sapiens, UniProt P05177).
T6 construct: incubated with human liver microsomes and test compounds of different concentrations; from tissue; host or cells: human liver microsomes
T6 sequence (P05177 1-516): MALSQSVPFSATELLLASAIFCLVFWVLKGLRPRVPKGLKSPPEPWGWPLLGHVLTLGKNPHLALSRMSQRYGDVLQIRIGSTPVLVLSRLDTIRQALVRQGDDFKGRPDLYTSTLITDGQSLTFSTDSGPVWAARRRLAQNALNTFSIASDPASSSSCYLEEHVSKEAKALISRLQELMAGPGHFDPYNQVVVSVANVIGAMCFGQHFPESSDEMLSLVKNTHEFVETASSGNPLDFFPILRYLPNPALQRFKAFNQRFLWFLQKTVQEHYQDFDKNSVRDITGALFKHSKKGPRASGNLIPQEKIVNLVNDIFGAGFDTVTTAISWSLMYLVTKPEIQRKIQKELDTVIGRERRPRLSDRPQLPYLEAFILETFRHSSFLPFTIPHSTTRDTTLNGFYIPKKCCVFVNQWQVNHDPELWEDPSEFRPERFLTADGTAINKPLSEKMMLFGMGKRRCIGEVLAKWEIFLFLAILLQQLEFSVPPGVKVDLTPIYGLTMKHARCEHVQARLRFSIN
Description: CYP450 enzyme inhibition, human liver microsomes, CYP1A2. Format: in vitro ADME. How it is done:
as §1

For data set [8], the system named is B10-Dmd-KO (Mdx) mice. Nature of the data set: PK/PD detection of mouse model with Dmd (Mdx) gene mutation, plasma CK. Format: in vivo. As to conditions: 10 mpk single administration, oral. The source says:
Experimental objective: Bl0-Dmd-KO (Mdx) mice are DMD function-deficient mice caused by frameshift mutations in the Dmd gene. […] This study has investigated the effects on CK and TNNI2 in the plasma of Mdx mice upon administration of compounds.
Experimental animal: B10-Dmd-KO (C57BL/10ScSnJGpt-Dmdem3Cd4/Gpt), male, 5-7 weeks old, weight 28-30 g, supplier. Gempharmatech Co., Ltd.;
• 1) Running training (D-5): Mdx mice underwent running training in batches. The training parameters were set as three time periods, i.e., the initial speed of 4 m/min for 2 min, then 8 m/min for 8 min, and finally 12 m/min for 30 min, a total of 40 min; • 2) Gripping strength test (D-2): each round was measured three times, and three rounds were performed; • 3) Grouping (DO): the animals were anesthetized by inhalation of isoflurane (concentration: 5%, gas flow rate: 1 L/min), and then a capillary tube was used to collect blood (about 150 μL) via orbital venous sinus into a 0.6 mL centrifuge tube containing EDTA anticoagulant, the plasma wad separated, and the CK value was detected, which was used as the basic value for grouping; • 4) Administration, grasping, and blood collection (D1): The compounds were dissolved in the vehicle 5% DMA+5% HS-15+90% Saline, then orally administered to the mice, and then the grip strength test was conducted (three tests per round for three rounds). […] A capillary tube was used to collect blood (>300 μL) via orbital venous sinus into a 0.6 mL centrifuge tube containing EDTA anticoagulant, and then the animals were euthanized to collect the tibialis anterior muscle (left leg), soleus muscle (both legs) and cardiac muscle, which were weighed and recorded, placed in a homogenization tube and quickly frozen in liquid nitrogen, then stored at −80° C.
Sample processing: After the whole blood anticoagulated with EDTA was centrifuged at 3000 rpm and 4° C. for 10 min, the […] was collected and subpackaged. The separated […] was subjected to a biochemical analyzer (Fully automatic biochemical analyzer Roche C311) to detect the CK value and TNN12 value (Mouse TNNI2 Elisa Kit, ABBEXA, E2207370Y); The […] concentration of the compound and the drug concentration in tibialis anterior muscle, soleus muscle and cardiac muscle were measured by LC/MS instrument.

The test system of data set [9] is rabbit skeletal muscle myosin. Nature of the data set: Inhibition of hydrolysis of ATP by rabbit skeletal muscle myosin. The format is biochemical. In a few lines:
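Actin-activated ATPase: F-actin plus rabbit skeletal myosin II with compound in Tris-HCl pH 7.5/KCl/EGTA/MgCl2, started with ATP (3 mM working stock) and run 60 min at 37 °C. Released Pi measured by CytoPhos absorbance at 650 nm against a phosphate standard curve; IC50 fitted from inhibition relative to uninhibited myosin.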

Data set [10] can be described thus: Pharmacokinetic experiment in mouse muscle tissue (tibialis anterior / plasma). Format: in vivo, C57 mice. As to conditions: male, C57, tibialis anterior muscle / plasma, oral, intragastric 10 mg/kg, read-out: Ratio = Tibialis anterior Conc./Plasma Conc. The procedure: as §2
2. Experimental design: On the day of the experiment, C57 mice were randomly grouped according to their body weight. The animals were fasted with water available for 12 to 14 h one day before the administration and were fed 4 h after the administration. Administration was performed as per Table 10.1.

Data set [11] addresses T7, cardiac myosin SII (Bos taurus, UniProt Q9BE39).
T7 construct: purchased Cytoskeleton #MYO3-A
Nature of the data set: Inhibition of hydrolysis of ATP by cardiac myosin SII. As to conditions: 100 μM compound. The format is biochemical. The gist of the method: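 Bovine cardiac myosin with preformed F-actin in 15 mM Tris-HCl pH 7.5, 10 mM KCl, 2 mM MgCl2, 0.1 mM EGTA; compounds at 100 μM final, ATP from 3 mM working solution, 2 h at 37 °C. Released Pi measured colorimetrically at 650 nm against a Pi standard curve; % inhibition vs. DMSO control.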

Data set [12] addresses T8, smooth muscle myosin S1 (Gallus gallus, UniProt P10587).
T8 construct: purchased Cytoskeleton #CS-MYS05
Nature of the data set: Inhibition of hydrolysis of ATP by smooth muscle myosin S1 fragments. Format: biochemical. As to conditions: 100 μM compound. In a few lines:
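Smooth muscle myosin S1 fragment (0.7 mg/mL in PM12 buffer with 1 mM DTT) was mixed with compound and F-actin polymer prepared from cardiac actin, then 5 mM ATP working solution started the reaction at 37° C. for 20 min. Released Pi was measured with CytoPhos reagent at 650 nm against a standard curve, and inhibition was calculated relative to positive control wells.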

Setting [13] is: inhibition of hydrolysis of ATP, class symbols, read-out: Rabbit skeletal muscle myosin (IC50).
Setting [14] is: read-out: IC50 for inhibition of hydrolysis of ATP by rabbit skeletal muscle myosin.

T7 sequence (Q9BE39 whole entry): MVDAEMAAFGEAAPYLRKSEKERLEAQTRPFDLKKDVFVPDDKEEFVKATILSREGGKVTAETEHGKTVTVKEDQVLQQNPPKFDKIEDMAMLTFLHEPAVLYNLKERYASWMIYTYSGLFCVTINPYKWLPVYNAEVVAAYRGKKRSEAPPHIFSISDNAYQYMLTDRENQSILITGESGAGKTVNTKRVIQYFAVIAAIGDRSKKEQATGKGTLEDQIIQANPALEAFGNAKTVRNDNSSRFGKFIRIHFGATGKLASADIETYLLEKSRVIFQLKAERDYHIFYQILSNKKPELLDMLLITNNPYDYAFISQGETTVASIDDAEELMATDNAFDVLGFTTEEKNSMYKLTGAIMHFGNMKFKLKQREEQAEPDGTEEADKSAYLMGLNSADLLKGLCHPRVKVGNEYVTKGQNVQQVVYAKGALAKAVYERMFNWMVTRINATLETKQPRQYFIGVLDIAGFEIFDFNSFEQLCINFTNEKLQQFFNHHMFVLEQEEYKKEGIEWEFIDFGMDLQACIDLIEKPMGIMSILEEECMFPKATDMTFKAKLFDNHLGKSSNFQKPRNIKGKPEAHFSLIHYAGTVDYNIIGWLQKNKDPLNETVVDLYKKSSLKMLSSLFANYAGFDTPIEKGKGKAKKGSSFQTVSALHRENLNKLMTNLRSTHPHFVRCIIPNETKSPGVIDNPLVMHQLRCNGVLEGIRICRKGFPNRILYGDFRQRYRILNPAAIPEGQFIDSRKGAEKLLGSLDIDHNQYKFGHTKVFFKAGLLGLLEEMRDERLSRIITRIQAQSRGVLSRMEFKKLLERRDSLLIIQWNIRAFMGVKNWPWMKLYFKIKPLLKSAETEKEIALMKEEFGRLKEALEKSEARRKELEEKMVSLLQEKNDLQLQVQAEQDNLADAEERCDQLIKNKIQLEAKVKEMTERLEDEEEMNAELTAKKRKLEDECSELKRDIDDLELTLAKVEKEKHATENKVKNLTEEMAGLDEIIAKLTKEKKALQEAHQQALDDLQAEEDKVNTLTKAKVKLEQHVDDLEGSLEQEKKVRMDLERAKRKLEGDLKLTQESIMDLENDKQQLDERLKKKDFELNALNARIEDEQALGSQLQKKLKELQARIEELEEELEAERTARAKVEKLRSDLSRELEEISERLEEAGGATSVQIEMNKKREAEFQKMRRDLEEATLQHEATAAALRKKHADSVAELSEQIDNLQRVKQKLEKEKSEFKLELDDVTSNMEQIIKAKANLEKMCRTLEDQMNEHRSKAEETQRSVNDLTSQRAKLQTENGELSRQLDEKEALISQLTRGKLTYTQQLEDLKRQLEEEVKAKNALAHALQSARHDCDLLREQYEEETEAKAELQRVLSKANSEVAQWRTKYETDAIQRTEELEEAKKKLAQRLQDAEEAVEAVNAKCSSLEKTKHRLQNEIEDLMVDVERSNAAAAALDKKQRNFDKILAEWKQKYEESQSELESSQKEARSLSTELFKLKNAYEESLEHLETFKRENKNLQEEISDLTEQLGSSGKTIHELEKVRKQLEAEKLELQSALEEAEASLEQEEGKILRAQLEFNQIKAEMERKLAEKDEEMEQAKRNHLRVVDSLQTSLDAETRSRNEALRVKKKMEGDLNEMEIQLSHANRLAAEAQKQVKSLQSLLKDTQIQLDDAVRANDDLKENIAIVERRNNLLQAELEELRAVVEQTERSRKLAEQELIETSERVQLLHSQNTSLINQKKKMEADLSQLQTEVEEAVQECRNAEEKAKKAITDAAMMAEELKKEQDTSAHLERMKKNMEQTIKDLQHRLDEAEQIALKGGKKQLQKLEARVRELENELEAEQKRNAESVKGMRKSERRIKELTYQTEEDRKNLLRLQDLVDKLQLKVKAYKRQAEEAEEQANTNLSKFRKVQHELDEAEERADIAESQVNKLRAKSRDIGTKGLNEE
T7 sequence (P85100 whole entry partner): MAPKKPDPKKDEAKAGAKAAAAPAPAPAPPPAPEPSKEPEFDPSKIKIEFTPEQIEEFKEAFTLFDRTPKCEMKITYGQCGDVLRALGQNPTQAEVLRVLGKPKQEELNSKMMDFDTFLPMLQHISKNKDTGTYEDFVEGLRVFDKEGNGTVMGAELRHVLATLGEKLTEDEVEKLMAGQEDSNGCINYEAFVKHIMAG
T7 sequence (Q3SZE5 whole entry partner): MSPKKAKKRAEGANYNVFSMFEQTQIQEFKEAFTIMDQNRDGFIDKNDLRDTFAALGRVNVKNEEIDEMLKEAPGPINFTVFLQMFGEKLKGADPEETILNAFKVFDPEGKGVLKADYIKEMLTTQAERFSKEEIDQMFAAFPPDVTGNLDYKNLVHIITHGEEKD
T3 sequence (Q12809 whole entry): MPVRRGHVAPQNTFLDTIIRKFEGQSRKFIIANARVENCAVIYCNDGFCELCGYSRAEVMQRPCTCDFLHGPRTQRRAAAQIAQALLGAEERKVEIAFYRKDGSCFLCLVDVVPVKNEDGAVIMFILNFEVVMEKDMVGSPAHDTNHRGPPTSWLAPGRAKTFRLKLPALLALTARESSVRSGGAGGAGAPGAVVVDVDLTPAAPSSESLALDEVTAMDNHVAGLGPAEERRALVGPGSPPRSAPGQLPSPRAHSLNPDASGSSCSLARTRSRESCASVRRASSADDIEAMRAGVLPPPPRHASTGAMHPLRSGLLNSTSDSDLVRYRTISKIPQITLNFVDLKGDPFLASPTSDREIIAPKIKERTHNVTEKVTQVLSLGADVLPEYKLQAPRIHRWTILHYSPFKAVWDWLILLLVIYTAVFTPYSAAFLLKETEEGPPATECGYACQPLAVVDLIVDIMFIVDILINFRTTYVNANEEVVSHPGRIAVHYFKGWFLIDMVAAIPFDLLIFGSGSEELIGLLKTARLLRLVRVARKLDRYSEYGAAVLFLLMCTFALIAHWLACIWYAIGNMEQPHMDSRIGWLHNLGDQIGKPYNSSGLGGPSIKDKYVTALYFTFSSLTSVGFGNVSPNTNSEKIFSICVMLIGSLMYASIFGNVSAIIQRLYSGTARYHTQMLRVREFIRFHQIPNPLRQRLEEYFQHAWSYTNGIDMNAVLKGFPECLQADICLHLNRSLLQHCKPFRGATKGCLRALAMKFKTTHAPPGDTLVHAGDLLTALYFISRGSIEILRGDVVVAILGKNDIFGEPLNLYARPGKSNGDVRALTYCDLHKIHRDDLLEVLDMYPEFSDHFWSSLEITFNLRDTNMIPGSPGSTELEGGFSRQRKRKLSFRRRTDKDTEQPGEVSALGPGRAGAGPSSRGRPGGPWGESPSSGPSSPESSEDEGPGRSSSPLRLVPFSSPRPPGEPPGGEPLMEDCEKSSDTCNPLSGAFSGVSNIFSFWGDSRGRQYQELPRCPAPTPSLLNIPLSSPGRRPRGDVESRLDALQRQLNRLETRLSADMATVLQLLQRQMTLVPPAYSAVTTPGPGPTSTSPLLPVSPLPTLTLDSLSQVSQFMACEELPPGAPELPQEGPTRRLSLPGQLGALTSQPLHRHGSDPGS
T8 sequence (P10587 84-789 limits assumed): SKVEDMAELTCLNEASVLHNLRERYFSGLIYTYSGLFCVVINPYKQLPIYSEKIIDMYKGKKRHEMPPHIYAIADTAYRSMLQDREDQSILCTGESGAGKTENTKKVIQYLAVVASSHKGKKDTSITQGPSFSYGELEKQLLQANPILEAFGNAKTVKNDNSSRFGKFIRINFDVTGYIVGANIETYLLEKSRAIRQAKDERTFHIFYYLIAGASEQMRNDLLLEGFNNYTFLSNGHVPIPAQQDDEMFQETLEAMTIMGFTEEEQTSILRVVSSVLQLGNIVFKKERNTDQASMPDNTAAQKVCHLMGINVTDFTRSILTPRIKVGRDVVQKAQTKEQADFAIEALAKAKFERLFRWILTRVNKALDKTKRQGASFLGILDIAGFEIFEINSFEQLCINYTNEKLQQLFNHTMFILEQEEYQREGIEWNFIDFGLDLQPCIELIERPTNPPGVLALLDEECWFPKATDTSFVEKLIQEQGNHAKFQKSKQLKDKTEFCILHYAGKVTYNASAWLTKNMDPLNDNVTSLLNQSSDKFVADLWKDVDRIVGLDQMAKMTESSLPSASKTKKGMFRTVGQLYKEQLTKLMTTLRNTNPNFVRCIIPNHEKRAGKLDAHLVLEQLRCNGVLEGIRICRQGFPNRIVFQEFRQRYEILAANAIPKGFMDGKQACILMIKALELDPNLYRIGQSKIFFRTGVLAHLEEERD
T8 sequence (P02607 whole entry partner): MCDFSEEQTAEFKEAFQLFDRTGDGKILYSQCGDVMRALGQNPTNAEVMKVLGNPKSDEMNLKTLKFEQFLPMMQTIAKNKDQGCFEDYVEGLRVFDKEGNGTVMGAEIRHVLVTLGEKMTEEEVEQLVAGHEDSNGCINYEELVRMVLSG
T4 sequence (P10635 whole entry): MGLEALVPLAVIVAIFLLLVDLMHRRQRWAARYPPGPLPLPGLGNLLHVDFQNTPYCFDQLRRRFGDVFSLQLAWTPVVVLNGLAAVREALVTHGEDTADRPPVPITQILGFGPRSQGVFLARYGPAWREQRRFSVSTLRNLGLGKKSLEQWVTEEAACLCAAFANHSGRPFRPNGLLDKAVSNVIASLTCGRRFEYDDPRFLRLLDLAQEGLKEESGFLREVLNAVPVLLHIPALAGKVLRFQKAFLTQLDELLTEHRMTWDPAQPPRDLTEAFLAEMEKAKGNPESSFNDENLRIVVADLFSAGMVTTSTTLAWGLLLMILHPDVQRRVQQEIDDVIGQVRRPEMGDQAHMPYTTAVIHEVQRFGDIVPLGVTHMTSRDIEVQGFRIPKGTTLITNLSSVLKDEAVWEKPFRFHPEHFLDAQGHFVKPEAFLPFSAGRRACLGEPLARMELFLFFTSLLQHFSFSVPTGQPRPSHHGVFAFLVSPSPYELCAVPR

Take `O=c1ccc(-c2cnc(OCC(F)(F)F)nc2)nn1Cc1ccc2[nH]ncc2c1` [Comparative Example 1, reference compound]: the IC50 in [1] was 1.85 µM; in data set [2] it was above 30 µM; in [5] it was 8.81 µM; in data set [6], 4.44 µM; in data set [7] it was above 30 µM. The compound also returned an AUC(0-t) in data set [3] of 2210 ng·h/mL. This compound showed a Cmax in data set [3] of 267 ng/mL. The compound further had a half-life in data set [3] of 18.9 h. Besides, the pIC50 in data set [4] is 5.60.

`O=c1ccc(-c2cnc(OCC(F)(F)F)nc2)nn1Cc1ccc2c(c1)CC2` [Compound 56]: the “Inhibition rate of CK values (sampled 24 h after (last) dose)” value in data set [8] was 88.4%. In addition, the figures for the pIC50 in data set [9] (setting [13]) and in [9] (setting [14]) were above 5.60 and 6.47, respectively. Also, in [10] (6 h), the Kp at 6 h came to 175. Further, the Kp at 24 h in [10] (24 h) came to 316.

For `O=c1ccc(-c2cnc(C3CC3)nc2)nn1Cc1ccc2c(c1)CC2` [Compound 92], the inhibition at 100 µM in [11] amounted to 17%. Besides, the results for the negative logarithm of the IC50 (pIC50) in data set [4], in [9] (setting [13]) and in data set [9] (setting [14]) were below 4.40, above 5.60 and 6.70, respectively.

Consider `O=C1CCc2ccc(Cn3nc(-c4cnc(Oc5cncc(F)c5)nc4)ccc3=O)cc21` [Compound 124], for which the values for the inhibition at 100 µM in data set [12] and in [11] were -12% and 4%, respectively. Moreover, the results for the pIC50 in data set [4] and in data set [9] (setting [13]) were below 4.40 and above 5.60, respectively.

In the case of `O=C1CCc2ccc(Cn3nc(-c4cnc(C5CC5)nc4)ccc3=O)cc21` [Compound 157], the inhibition at 100 µM in data set [12] was -3%; in [11], 10%. Besides, the pIC50 in [4] is below 4.40; in [9] (setting [13]) it was above 5.60.
